These results are taken from US11040976B2, “Substrate selective inhibitors of insulin-degrading enzyme (IDE) and uses thereof” (President and Fellows of Harvard College, priority 2015, dated 2021).

Assay [1] addresses T1, IDE (R&D), substrate insulin (Homo sapiens, UniProt P14735).
T1 construct: recombinant human IDE42-1019 (R&D Systems); purchased R&D
T1 sequence (P14735 42-1019): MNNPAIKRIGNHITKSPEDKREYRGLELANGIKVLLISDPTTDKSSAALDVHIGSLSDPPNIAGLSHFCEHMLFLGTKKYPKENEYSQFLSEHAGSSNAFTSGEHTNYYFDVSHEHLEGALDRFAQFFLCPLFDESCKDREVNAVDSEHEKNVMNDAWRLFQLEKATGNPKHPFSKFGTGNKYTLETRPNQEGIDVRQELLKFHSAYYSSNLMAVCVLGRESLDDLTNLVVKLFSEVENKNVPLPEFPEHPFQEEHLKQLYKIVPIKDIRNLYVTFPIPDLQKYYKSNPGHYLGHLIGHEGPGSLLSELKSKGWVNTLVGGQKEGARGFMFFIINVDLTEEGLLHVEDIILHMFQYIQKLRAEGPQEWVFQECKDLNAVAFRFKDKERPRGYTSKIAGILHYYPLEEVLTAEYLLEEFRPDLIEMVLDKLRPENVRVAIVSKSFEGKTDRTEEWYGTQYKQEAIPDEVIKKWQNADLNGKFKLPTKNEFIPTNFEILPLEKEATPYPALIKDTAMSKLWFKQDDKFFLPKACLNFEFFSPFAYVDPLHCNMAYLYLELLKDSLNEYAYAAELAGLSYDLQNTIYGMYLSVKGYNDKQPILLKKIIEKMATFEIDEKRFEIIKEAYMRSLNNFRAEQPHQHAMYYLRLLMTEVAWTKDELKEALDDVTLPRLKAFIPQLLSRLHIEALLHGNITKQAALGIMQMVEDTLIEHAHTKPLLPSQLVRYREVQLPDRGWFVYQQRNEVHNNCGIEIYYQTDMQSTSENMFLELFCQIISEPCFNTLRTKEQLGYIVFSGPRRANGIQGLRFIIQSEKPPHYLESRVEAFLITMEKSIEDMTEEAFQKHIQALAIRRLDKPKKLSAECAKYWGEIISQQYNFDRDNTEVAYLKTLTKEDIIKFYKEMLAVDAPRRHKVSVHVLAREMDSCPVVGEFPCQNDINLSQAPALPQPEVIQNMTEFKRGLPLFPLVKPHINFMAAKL
Kind of assay: HTRF endpoint assay for IDE-mediated degradation of insulin. The format is biochemical. As to conditions: HTRF endpoint assays for insulin and glucagon, FIG. 4; compounds 67 μM, 6bK 10 μM. As for the experimental part:
A solution of 0.8 μg/mL IDE (R&D) in pH 7.5 buffer containing 20 mM HEPES, 135 mM NaCl (24 μL) was transferred to a 200 μL tube strip, and combined with 1 μL of each inhibitor (10 mM in DMSO, or as a 3-fold dilution series). A solution of insulin in “Assay Diluent” (CisBio, 25 μL) was added to a final concentration of 20 ng/mL, and incubated at 30° C. for 15 minutes. This procedure was optimized to result in ˜75% degradation of insulin. The reaction was terminated by adding 25 μL of inhibitor Ii1 (200 nM) and chilled on ice. The remaining insulin was quantified using 10 μL of the quenched enzymatic reaction using the sensitive-range protocol Homogeneous Time-Resolved FRET Insulin assay (CisBio® 62INSPEB, see FIG. 3) in 20 μL total volume according to the manufacturer's instructions (384 well-plate Greiner 784904 non-binding). Fluorescence was measured using a Tecan M1000Pro plate reader (excitation=320 nm, emission=665 and 620 nm, lag time=60 μs) according the assay manufacturer's recommendations. Blank wells and insulin standard curve were included in the assay.
FIG. 4 compares the determined endpoint for insulin degradation with of glucagon degradation for a DMSO control, 6bK at 10 μM, and exemplary compounds of the invention at concentrations of 67 μM. […]

Assay [2] relates to human IDE Val360Gln and Tyr314Phe. The assay can be described thus: Activity assay of mutant human IDE variants Val360Gln and Tyr314Phe with IDE inhibitors. The assay is classed as biochemical. The source says:
N-His6-tagged human IDE42-1019 construct was introduced in the expression plasmid pTrcHis-A (Invitrogen) using primers for uracil-specific excision reactions (USER) by Taq (NEB) and Pfu polymerases (PfuTurbo CX®, Agilent), as described in more detail in Maianti et al. (Nature (2014), 511, 94-98), which is incorporated by reference herein. The IDE gene was amplified with the primers 5′-[…]-dU-[…] (SEQ ID NO: 26) and 5′-[…] G-dU-[…] (SEQ ID NO: 27) (underlined sequences represent overhangs, and italics highlight the PCR priming sequence). Similarly, the pTrcHis-A vector was amplified for USER cloning with the primers 5′-[…]-dU-[…] (SEQ ID NO: 28) and 5′-[…]-dU-[…] (SEQ ID NO: 29). Mutant IDE constructs were generated by amplifying the full vector construct with USER cloning primers introducing a mutant overhang (see Table E6).
Recombinant His6-tagged proteins were purified by Ni(II)-affinity chromatography (IMAC sepharose beads, GE Healthcare®) according to the manufacturer's instructions. The cell pellets were re-suspended in pH 8.0 buffer containing 50 mM phosphate, 300 mM NaCl, 10 mM imidazole, 1% Triton X-100 and 1 mM tris(2-carboxyethyl)phosphine hydrochloride (TCEP), and were lysed by probe sonication for 4 minutes at <4° C., followed by clearing of cell debris by centrifugation at 10,000 g for 25 minutes at 4° C. […]

In the case of `NCCCC[C@@H]1NC(=O)/C=C/C(=O)N[C@H](C(N)=O)CCCCNC(=O)[C@@H](Cc2ccc(C(=O)c3ccccc3)cc2)NC(=O)[C@H](CC2CCCCC2)NC1=O` [6bK, reference compound], the “selectivity between insulin degradation and glucagon degradation” value in assay [1] is listed as “no selectivity”.
With `Cc1cccc(-c2ccc([C@@H]3[C@@H](CO)N4CCCCN(S(=O)(=O)c5ccccc5C)C[C@@H]34)cc2)c1` [compound 297], the “effect of variants Val360Gln and Tyr314Phe on potency” value in assay [2] is recorded as “minor impacts on potency”.
